The values that follow come from patent US20050137251A1, “Dexanabinol and dexanabinol analogs regulate inflammation related genes” (priority 2002, published 2005).

One assay has as its system MCP-1 gene expression. Kind of assay: MCP-1 gene expression in MCAo mice brains. Conditions: 5 mg/kg i.v., 18 hours of MCAo.
In assay [1] the test system is COX-2 gene expression. In words: COX-2 gene expression in MCAo mice brains. Conditions: 5 mg/kg i.v., 18 hrs following MCAo.
For a further assay, the system named is PGE2 secretion. In words: Inhibition of PGE2 secretion in LPS activated mouse macrophages (RAW 264.7). It is filed as cell-based. Conditions: RAW264.7, LPS activated RAW 264.7 cells. The method, then:
The assay reproduces in vitro the true enzymatic activity, the test compounds, up to 10 μM, were preincubated for 5 minutes with purified COX-2, then the natural substrate AA was added and the reaction was allowed to proceed for 2 minutes. HCl was used to stop the enzyme catalysis and saturated stannous chloride was added to stabilize the PGH2 product into PGF2α.
RAW 264.7 macrophages, a mouse cell line (ATCC # TIB 71), were grown in Dulbecco's modified Eagle's medium (DMEM) with 4 mM L-glutamine adjusted to contain 1.5 g/L sodium bicarbonate, 4.5 g/L glucose, and 10% heat inactivated fetal bovine serum. Cells were grown in tissue culture flasks and seeded at appropriate density into 24 wells tissue culture plates. 0.5×10^6 Raw cells in one milliliter were stimulated with 2 μg/ml Lipopolysaccharide E. coli 055:B5 (DIFCO Laboratories). The mouse macrophages were pre-treated for one hour with controls or 10 μM of dexanabinol and its analogs, unless indicated otherwise, and later on activated with LPS.

Assay [2] relates to IL-2 gene expression. Kind of assay: IL-2 gene expression in Jurkat T cells activated with PMA and calcium ionophore. It is filed as cell-based, human. Conditions: 10 μM, RNA 6 hrs after activation.
Method: The human acute lymphoma T cell line Jurkat (ATCC # TIB 152) was used to test the possible immunosuppressive effect of dexanabinol and its analogs on T cell activation. […] 2×10^6 cells in one milliliter were stimulated using 10 ng/ml of PMA (Sigma) and 1 μM A23187 calcium ionophore (Sigma). […] The controls and test compounds were added at indicated concentrations one hour before stimulation.
The results are plotted after normalization to cyclophilin A expression.
The test system of assay [3] is IL-2 gene expression. Kind of assay: IL-2 gene expression in MCAo mice brains. Conditions: 5 mg/kg i.v., 18 hrs following MCAo.
A further assay concerns IL-10 gene expression. In words: IL-10 gene expression in MCAo mice brains. Conditions: 5 mg/kg i.v., 18 hours of MCAo.
Assay [4] relates to activated microglia cells. Kind of assay: Activated microglia (F4/80 immunohistochemistry) in hippocampus of LPS injected mice brains. It counts as in vivo. The following applies: 20 mg/kg, 72 hours after LPS. The method, then:
The local i.c.v. injection of LPS in mice brain stimulates a wide range of inflammatory responses and cascades where various cytokines and chemokines are implicated. Following the results obtained in examples 3 and 4, we decided to assess the effect of additional active compounds of the invention on other genes involved in the inflammatory response. Specifically, we tested the impact of dexanabinol and PRS-211,092, both at 20 mg/kg, on the expression of pro-inflammatory IL-1β cytokine. The protocol was basically as previously described with minor modifications. The amount of LPS injected in the mice brain was raised to 250 ng and the animals were sacrificed 24 hours after LPS and treatment injection for mRNA analysis, carried out as previously described. Moreover, some animals were kept alive and sacrificed 72 hours after LPS and treatment injection for immunohistochemical analysis. For this purpose, after euthanizing the animals by injecting i.p. 100 mg/kg of sodium pentobarbitone, brains were removed and fixed in 4% formaldehyde for at least 72 hours. Brains were then washed with PBS and transferred for cryoprotection in a solution of 30% sucrose in PBS, until they sank. […] Quantitative analysis was carried out by counting the number of immunoreactive cells/mm^2 at the level of the hippocampus.

The target of the next assay is recombinant COX-2 (Homo sapiens, UniProt P35354). In words: In vitro enzymatic activity of recombinant COX-2 (PGF2α EIA). The following applies: purified COX-2, test compounds up to 10 μM, 5 min preincubation, substrate AA. It is filed as biochemical.
In a further assay the test system is TNF-α secretion. In words: TNF-α secretion in LPS activated macrophages. Conditions: Mus musculus, Macrophage, read-out: IC50 for inhibition of TNF-α secretion. It is filed as cell-based. From the text:
The technique used to quantify the amount of a given protein in a liquid sample, either tissue culture supernatant or body fluid, is based on Enzyme Linked ImmunoSorbent Assay (ELISA) methodology. Either commercially available or established in house, the assay is based on the capture of the protein of interest by specific antibodies bound to the bottom of an ELISA plate well. Unbound material is washed away, the captured protein is then exposed to a secondary antibody generally labeled with horseradish peroxidase (HRP) or alkaline phosphatase (ALP). Again the unbound material is washed away, the samples are then incubated with the appropriate substrate yielding a colorimetric reaction. The reaction is stopped and reading is carried out in a spectrophotometer at the appropriate wavelength. Samples are tested at least in duplicate and the appropriate standard curve, consisting of serial dilutions of the recombinant target protein, is incorporated on each plate. Concentration of the protein in the sample is calculated from the standard curve.
RAW 264.7 macrophages, a mouse cell line (ATCC # TIB 71), were grown in Dulbecco's modified Eagle's medium (DMEM) with 4 mM L-glutamine adjusted to contain 1.5 g/L sodium bicarbonate, 4.5 g/L glucose, and 10% heat inactivated fetal bovine serum. […]

For assay [5], the system named is COX-2 gene expression. Kind of assay: COX-2 gene expression in LPS i.c.v. injected mice brains. It counts as in vivo. The following applies: 20 mg/kg i.p., whole brain 6 hours after 100 ng LPS i.c.v.
Another assay deals with IL-1β gene expression. In words: IL-1β gene expression in MCAo mice brains. Conditions: 5 mg/kg i.v., 18 hrs following MCAo.
The subject of the next assay is IL-6 gene expression. Kind of assay: IL-6 gene expression in MCAo mice brains. The following applies: 5 mg/kg i.v., 18 hrs following MCAo.

pIC50: −log10 of the molar value.

Chain of recombinant COX-2 (P35354 18-604): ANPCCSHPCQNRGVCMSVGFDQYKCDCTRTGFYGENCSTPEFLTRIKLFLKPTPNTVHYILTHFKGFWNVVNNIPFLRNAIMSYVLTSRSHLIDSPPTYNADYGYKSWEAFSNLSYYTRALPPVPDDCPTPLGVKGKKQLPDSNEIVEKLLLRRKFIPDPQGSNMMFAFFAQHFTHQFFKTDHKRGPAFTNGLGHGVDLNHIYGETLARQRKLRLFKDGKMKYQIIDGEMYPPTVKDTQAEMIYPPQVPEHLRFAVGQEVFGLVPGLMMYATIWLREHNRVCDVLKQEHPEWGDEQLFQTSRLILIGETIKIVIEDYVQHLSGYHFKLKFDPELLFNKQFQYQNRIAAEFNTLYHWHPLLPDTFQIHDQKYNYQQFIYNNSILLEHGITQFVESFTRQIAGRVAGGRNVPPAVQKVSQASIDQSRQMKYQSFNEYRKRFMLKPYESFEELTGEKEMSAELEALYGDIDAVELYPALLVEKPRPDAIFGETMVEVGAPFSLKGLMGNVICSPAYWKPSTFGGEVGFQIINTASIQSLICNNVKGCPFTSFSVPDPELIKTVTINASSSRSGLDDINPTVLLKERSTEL

In the case of `CCCCCCC(C)(C)c1cc(O)c2c(c1)OC(C)(C)[C@H]1CC=C(CO)C[C@H]21` [dexanabinol, 1,1-dimethylheptyl-(3S,4S)-7-hydroxy-Δ^6-tetrahydrocannabinol], the “Reduction of MCP-1 gene expression increase vs vehicle” value in the assay on MCP-1 gene expression was determined as 41%. In addition, in the assay on COX-2 gene expression [1], the “Reduction of COX-2 gene activation vs vehicle” value is 38%. Moreover, the figures for the pIC50 in the assay on PGE2 secretion and in the assay with TNF-α secretion were 5.00 and 4.70 to 5.00, respectively. The “Reduction of IL-2 fold of activation” value with IL-2 gene expression [2] is reported as 41%. In addition, the “Reduction of IL-2 gene activation vs vehicle” value in the assay with IL-2 gene expression [3] was 177%. For the same compound, the “Further increase of IL-10 gene expression vs vehicle” value with IL-10 gene expression amounted to 4.4 fold. In assay [4], the “Reduction of the amount of activated microglia vs vehicle” value turned out to be 40%. Moreover, on recombinant COX-2, the “Inhibition of COX-2 enzymatic activity” value was “no inhibitory effect”. For the same compound, the “Reduction in the level of COX-2 activation” value in the assay with COX-2 gene expression [5] was found to be 53%. The “Modulation of IL-1β gene expression” value in the assay with IL-1β gene expression is reported as “not modulated”. The “Modulation of IL-6 gene expression” value in the assay on IL-6 gene expression was “not modulated”.
